SMILES strings stand for the structures.

Holding throughout (type): in vivo
Assay [1] concerns broad leaf weeds (Lindernia pyxidaria and Monochoria vaginalis). The assay can be described thus: Test Example 1: herbicidal effect test by treatment of rice paddy soil (immediately after seeding). In a few lines:
(§1)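 Paddy soil in pots with compound fertilizer, puddled; 30 seeds per species sown at 0–1 cm, flooded ~3 cm, greenhouse. Water-diluted emulsions dropped onto water immediately after seeding at 120 g active ingredient per 10 ares, duplicate. Herbicidal rate (%) from plant dry weight versus untreated, 14 days after treatment.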

In assay [2] the test system is Scirpus juncoides. The description is as above. In a few lines: as §1
For assay [3], the system named is Echinochloa crus-galli. The description is as above. The gist of the method: as §1
In assay [4] the test system is broad leaf weeds (Lindernia pyxidaria and Monochoria vaginalis). The experiment in a line: Test Example 2: herbicidal effect test by treatment during growing period in paddy rice cultivation (seven days after seeding). Particulars: 120 g/10a active ingredient, assessed 14 days after treatment, dry weight vs untreated area. In a few lines: (§2)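 Herbicidal rate (%) = {1 − treated/untreated mean plant dry weight} × 100, assessed in duplicate 14 days post-treatment. Emulsion formulations were diluted in water and dropped onto flooded (about 3 cm) paddy pots 7 days after seeding, giving 120 g a.i. per 10 ares. Plants were grown in a glass greenhouse.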

Assay [5] concerns Scirpus juncoides. The description is as above. Conditions: 120 g/10a active ingredient, assessed 14 days after treatment, dry weight vs untreated area. In a few lines:
as §2

The subject of assay [6] is Echinochloa crus-galli. The assay is described as above. Conditions: 120 g/10a active ingredient, assessed 14 days after treatment, dry weight vs untreated area. The gist of the method: as §2
Assay [7] relates to southern crabgrass. The assay can be described thus: Test Example 3: herbicidal effect test by treatment of dry field farming soil (one day after seeding). Conditions: 120 g/10a active ingredient, evaluated 14 days after treatment. How it is done:
(§3) This test was conducted in a double system per one agent solution concentration area, and the herbicidal rates (%) were determined by the following equation (Math. 1) on 14 days after the treatment with the agents. Herbicidal Rate (%)={1-(Average Dry Weight (g) of Plant of Treated Area)/(Average Dry Weight (g) of Plant of Untreated Area)}×100 [Math. 1]
(§4) Herbicidal Effect Test by Treatment of Dry Field Farming Soil
(§5) Pots with a size of 36 cm^2 were filled with a dry field farming soil (alluvium). The soil of the top layer of 1 cm and seeds of weeds, namely southern crabgrass, Echinochloa crus-galli, Chenopodium album and Amaranthus viridis, 20 seeds each, were evenly mixed, and the top layer was gently pressed. Emulsions prepared using the compounds in Table 5 below according to Formulation Example 5 were diluted with water one day after seeding, and the water-diluted agent solutions were sprayed to the soil surfaces at a ratio of 100 liters per 10 ares. The converted amount of the applied active ingredient corresponded to 120 g per 10 ares. The herbicidal effects were evaluated by the same standard as that in Test Example 1 on 14 days after the treatment with the agents. […] The compound numbers in Table 5 are the same as those in Table 1 and Table 2 above.

In assay [8] the test system is Chenopodium album. The description is as above. Particulars: 120 g/10a active ingredient, evaluated 14 days after treatment. The protocol: as §3, §4, §5
For assay [9], the system named is Echinochloa crus-galli. The description is as above. Particulars: 120 g/10a active ingredient, evaluated 14 days after treatment. The protocol: as §3, §4, §5
The test system of assay [10] is Amaranthus viridis. The assay is described as above. Particulars: 120 g/10a active ingredient, evaluated 14 days after treatment. How it is done: as §3, §4, §5
Where [11] appears, read: Lindernia pyxidaria, 120 g/10a active ingredient, dry weight vs untreated area, 14 days after treatment.
[12] abbreviates: Monochoria vaginalis, 120 g/10a active ingredient, dry weight vs untreated area, 14 days after treatment.
The mark [13] stands for this setting: 120 g/10a active ingredient, dry weight vs untreated area, 14 days after treatment.
Where [14] appears, read: 120 g/10a active ingredient, 14 days after treatment, dry weight vs untreated area.

Regarding `Cc1c(Cc2ccccc2N(C(=O)c2ccccc2)S(=O)(=O)C(F)(F)F)c(=O)on1C(C)C` [Compound 1-472], the “Herbicidal rate (%) Lindernia pyxidaria” value in [1] (setting [11]) turned out to be 90%; in assay [4], 80%. Moreover, the “Herbicidal rate (%) Monochoria vaginalis” value in assay [1] (setting [12]) amounted to 60%; in [4] it was 90%. Also, the “Herbicidal rate (%) Scirpus juncoides” value in [2] (setting [13]) and in assay [5] was 90% throughout. The “Herbicidal rate (%) Echinochloa crus-galli” value in assay [3] (setting [13]) and in assay [6] was 90% each time. For the same compound, the “herbicidal rate, southern crabgrass” value in assay [7] turned out to be 70%. Further, the “herbicidal rate, Chenopodium album” value in assay [8] is given as 50%. Further, the “herbicidal rate, Echinochloa crus-galli” value in [9] is recorded as 90%. Also, the “herbicidal rate, Amaranthus viridis” value in [10] is 0%.

On to `CCCOC(=O)N(c1ccccc1Cc1c(C)n(C(C)(C)C)oc1=O)S(=O)(=O)C(F)(F)F` [Compound 1-631], for which the “Herbicidal rate (%) Lindernia pyxidaria” value in [1] (setting [11]) and in assay [4] was 90% in each case. Moreover, the “Herbicidal rate (%) Monochoria vaginalis” value in assay [1] (setting [12]) and in [4] was 90% throughout. In addition, the “Herbicidal rate (%) Scirpus juncoides” value in assay [2] (setting [13]) and in assay [5] was 90% each time. Besides, the “Herbicidal rate (%) Echinochloa crus-galli” value in assay [3] (setting [13]) and in assay [6] was 90% throughout. In addition, the “herbicidal rate, southern crabgrass” value in assay [7] was determined as 90%. For the same compound, the “herbicidal rate, Chenopodium album” value in assay [8] came to 90%. For the same compound, in assay [9], the “herbicidal rate, Echinochloa crus-galli” value turned out to be 90%. In addition, the “herbicidal rate, Amaranthus viridis” value in assay [10] is recorded as 90%.

In the case of `Cc1c(Cc2ccccc2N(C(=O)OC(C)C)S(=O)(=O)C(F)(F)F)c(=O)on1C(C)(C)C` [Compound 1-641], the “Herbicidal rate (%) Lindernia pyxidaria” value in assay [1] (setting [11]) and in assay [4] was 90% throughout. For the same compound, the “Herbicidal rate (%) Monochoria vaginalis” value in assay [1] (setting [12]) and in [4] was 90% throughout. Also, the “Herbicidal rate (%) Scirpus juncoides” value in assay [2] (setting [13]) and in assay [5] was 90% in each case. Moreover, the “Herbicidal rate (%) Echinochloa crus-galli” value in [3] (setting [13]) and in assay [6] was 90% in each case. Also, the “herbicidal rate, southern crabgrass” value in [7] stood at 90%. The “herbicidal rate, Chenopodium album” value in [8] worked out at 90%. Besides, in assay [9], the “herbicidal rate, Echinochloa crus-galli” value is listed as 90%. Besides, in [10], the “herbicidal rate, Amaranthus viridis” value was 90%.

In the case of `Cc1c(Cc2ccccc2N(C(=O)OCC(C)C)S(=O)(=O)C(F)(F)F)c(=O)on1C(C)C` [Compound 1-667], the “Herbicidal rate (%) Lindernia pyxidaria” value in assay [1] (setting [11]) and in assay [4] was 90% each time. Further, the “Herbicidal rate (%) Monochoria vaginalis” value in assay [1] (setting [12]) and in [4] was 90% throughout. Moreover, the “Herbicidal rate (%) Scirpus juncoides” value in assay [2] (setting [13]) and in assay [5] was 90% throughout. Also, the “Herbicidal rate (%) Echinochloa crus-galli” value in [3] (setting [13]) and in [6] was 90% each time. Moreover, the “herbicidal rate, southern crabgrass” value in [7] is on record as 80%. The “herbicidal rate, Chenopodium album” value in [8] was 90%. The “herbicidal rate, Echinochloa crus-galli” value in assay [9] was found to be 90%. Besides, the “herbicidal rate, Amaranthus viridis” value in [10] was 80%.

In the case of `CCn1oc(=O)c(Cc2ccccc2N(S(=O)(=O)C(F)(F)F)S(=O)(=O)C(F)(F)F)c1C` [Compound 1-960], the “Herbicidal rate (%) Lindernia pyxidaria” value in [1] (setting [11]) and in [4] was 70% each time. For the same compound, the “Herbicidal rate (%) Monochoria vaginalis” value in assay [1] (setting [12]) and in assay [4] was 70% each time. In addition, the “Herbicidal rate (%) Scirpus juncoides” value in assay [2] (setting [13]) came to 80%; in [5], 70%. Moreover, the “Herbicidal rate (%) Echinochloa crus-galli” value in [3] (setting [13]) is 80%; in [6], 70%. In addition, in assay [7], the “herbicidal rate, southern crabgrass” value turned out to be 80%. Further, the “herbicidal rate, Chenopodium album” value in assay [8] was found to be 0%. The “herbicidal rate, Echinochloa crus-galli” value in [9] was found to be 100%. Moreover, the “herbicidal rate, Amaranthus viridis” value in [10] amounted to 0%.

In the case of `CCCCn1oc(=O)c(Cc2ccccc2N(S(=O)(=O)C(F)(F)F)S(=O)(=O)C(F)(F)F)c1C` [Compound 1-969], the entries for the “Herbicidal rate (%) Lindernia pyxidaria” value in assay [1] (setting [11]) and in assay [4] were 100% and 60%, respectively. Besides, the “Herbicidal rate (%) Monochoria vaginalis” value in [1] (setting [12]) stood at 80%; in assay [4] it was 90%. The “Herbicidal rate (%) Scirpus juncoides” value in assay [2] (setting [13]) and in [5] was 90% throughout. The “Herbicidal rate (%) Echinochloa crus-galli” value in assay [3] (setting [13]) and in assay [6] was 100% each time. Moreover, the “herbicidal rate, southern crabgrass” value in assay [7] stood at 80%. Besides, the “herbicidal rate, Chenopodium album” value in [8] was 40%. Moreover, in assay [9], the “herbicidal rate, Echinochloa crus-galli” value worked out at 90%. The “herbicidal rate, Amaranthus viridis” value in assay [10] is recorded as 40%.

Turning to `CCC(C)Cn1oc(=O)c(Cc2ccccc2N(S(=O)(=O)C(F)(F)F)S(=O)(=O)C(F)(F)F)c1C` (stereo not drawn) [Compound 1-972], the “Herbicidal rate (%) Lindernia pyxidaria” value is reported as 100% in assay [1] (setting [11]) and 80% in assay [4]. Further, the “Herbicidal rate (%) Monochoria vaginalis” value in assay [1] (setting [12]) and in assay [4] was 100% each time. For the same compound, the “Herbicidal rate (%) Scirpus juncoides” value in [2] (setting [13]) was 100%; in assay [5], 90%. The “Herbicidal rate (%) Echinochloa crus-galli” value in assay [3] (setting [13]) and in assay [6] was 100% each time. Further, in assay [7], the “herbicidal rate, southern crabgrass” value was determined as 90%. In addition, the “herbicidal rate, Chenopodium album” value in assay [8] came to 100%. In addition, the “herbicidal rate, Echinochloa crus-galli” value in [9] is on record as 90%. The “herbicidal rate, Amaranthus viridis” value in assay [10] is 100%.

As for `Cc1c(Cc2ccccc2N(S(=O)(=O)C(F)(F)F)S(=O)(=O)C(F)(F)F)c(=O)on1Cc1ccccc1` [Compound 1-1011], the “Herbicidal rate (%) Lindernia pyxidaria” value in assay [1] (setting [11]) and in assay [4] was 90% each time. The “Herbicidal rate (%) Monochoria vaginalis” value in assay [1] (setting [12]) and in assay [4] was 90% each time. The “Herbicidal rate (%) Scirpus juncoides” value in assay [2] (setting [13]) and in [5] was 90% each time. For the same compound, the “Herbicidal rate (%) Echinochloa crus-galli” value in assay [3] (setting [13]) is 90%; in assay [6], 40%. The “herbicidal rate, southern crabgrass” value in [7] was 80%. Besides, the “herbicidal rate, Chenopodium album” value in [8] amounted to 40%. In assay [9], the “herbicidal rate, Echinochloa crus-galli” value came out at 90%. The “herbicidal rate, Amaranthus viridis” value in assay [10] amounted to 40%.

As to `Cc1c(Cc2ccccc2N(S(=O)(=O)C(F)(F)F)S(=O)(=O)C(F)(F)F)c(=O)on1CCCc1ccccc1` [Compound 1-1048], the figures for the “Herbicidal rate (%) Lindernia pyxidaria” value in [1] (setting [11]) and in assay [4] were 80% and 60%, respectively. Also, the “Herbicidal rate (%) Monochoria vaginalis” value in assay [1] (setting [12]) and in assay [4] was 60% throughout. Also, the “Herbicidal rate (%) Scirpus juncoides” value amounted to 80% in assay [2] (setting [13]) and 40% in assay [5]. Also, the “Herbicidal rate (%) Echinochloa crus-galli” value in assay [3] (setting [13]) and in assay [6] was 90% throughout. In assay [7], the “herbicidal rate, southern crabgrass” value was found to be 0%. Besides, in assay [8], the “herbicidal rate, Chenopodium album” value came out at 40%. Moreover, the “herbicidal rate, Echinochloa crus-galli” value in assay [9] is reported as 40%. In addition, the “herbicidal rate, Amaranthus viridis” value in assay [10] was 40%.

With `Cc1c(Cc2ccccc2N(S(=O)(=O)C(F)(F)F)S(=O)(=O)C(F)(F)F)c(=O)on1C1CCc2ccccc21` (stereo not drawn) [Compound 1-1049], the “Herbicidal rate (%) Lindernia pyxidaria” value in assay [1] (Lindernia pyxidaria, 120 g/10a active ingredient, 14 days after treatment, dry weight vs untreated area) is 90%; in assay [4] it was 60%. Further, the “Herbicidal rate (%) Monochoria vaginalis” value in assay [1] (Monochoria vaginalis, 120 g/10a active ingredient, 14 days after treatment, dry weight vs untreated area) was 80%; in assay [4], 70%. In addition, the “Herbicidal rate (%) Scirpus juncoides” value in assay [2] (setting [14]) amounted to 90%; in [5], 70%. The “Herbicidal rate (%) Echinochloa crus-galli” value in assay [3] (setting [14]) is on record as 90%; in assay [6], 80%. Besides, the “herbicidal rate, southern crabgrass” value in assay [7] was determined as 80%. Besides, the “herbicidal rate, Chenopodium album” value in [8] came to 50%. The “herbicidal rate, Echinochloa crus-galli” value in [9] is listed as 90%. Further, the “herbicidal rate, Amaranthus viridis” value in [10] worked out at 50%.

These data come from patent US11109593B2, “Isoxazolin-5-one derivative and herbicide containing same as active ingredient” (HOKKO CHEMICAL INDUSTRY CO., LTD., priority 2017, dated 2021).
